{"source": "patent US20100069854A1", "about": "“Elastomeric Devices Containing Chlorhexidine/Fatty Acid Salts Made From Fatty Acids of 12 to 18 Carbons” (priority 2008, published 2010)", "key": {"[1]": {"test_system": "Pseudomonas aeruginosa ATCC 27853", "test": "Basic broth adherence assay on coated polyurethane tubes", "type": "cell-based", "conditions": "for Inhibition of adherence / antimicrobial effect against Pseudomonas aeruginosa (in words): coated polyurethane tubes compared to uncoated control", "description": "The antimicrobial effectiveness of the coated samples was subjected to different durations of DI water extraction by basic broth adherence assay. For each chlorhexidine/fatty acid salt tested, 3 samples of coated tubing were prepared and assayed. To prepare the inoculum, a culture of Pseudomonas aeruginosa ATCC 27853 was used to challenge the coated polyurethane tubes and controls. The negative control used was a length of uncoated polyurethane tube. The challenge microorganism suspension was prepared as follows: approximately three colonies were removed from a secondary working culture plated on Trypticase Soy Agar (TSA) (BD-Falcon) with 5% sheep's blood and added to 10 ml of Trypticase Soy Broth (TSB). The vial was vortexed for approximately 30 seconds and incubated for 4 hours at 37° C. at 100 rpm. Following incubation, the vial was removed and vortexed. The optical density of the organism suspension was read. The inoculum was then diluted in TSB to a concentration of 5×10^4 colony forming units per milliliter (CFU/mL). This concentration was confirmed by the Miles and Misra drop count method.\nThe basic broth adherence assay was performed in a 96 well micro titer plate. To each well of the micro titer plate containing either a test article or a control, 900 μl of TSB was added. To this, 100 μl of the adjusted inoculum was added (Note: Due to the 1/10 dilution per well, the starting inoculum concentration of each organism was […] for Pseudomonas aeruginosa). The micro titer plates were then sealed via parafilm® around the edges and wrapped in foil to avoid evaporation of liquid and light contact with the samples. The plates were then placed inside a shaker incubator set at 37° C. and 100 rpm for 24 hours. Incubation at 37° C. then continued until the elapse of 7 days, 14 days, and 21 days, respectively, for each of the 3 samples prepared for each chlorhexidine/fatty acid salt.\nAt the completion of the respective incubation periods, the samples were rinsed, sonicated, the sonicate was plated and adherence was evaluated. More particularly, following incubation, all samples and controls were dip-rinsed twice in phosphate buffered saline (PBS) to remove the surrounding media. After rinsing, test articles were sonicated in micro titer plate wells containing 1 mL of Dey-Engley (DE) neutralizing broth (Difco). The sonication liquid was then serially diluted, and plated onto the surface of DE neutralizing agar. Plates were incubated at 37° C. for 24 to 48 hours and colonies were counted. Recovery counts were recorded as CFU/mL."}, "[2]": {"test": "Rate of release of chlorhexidine/fatty acid salts from coated polyurethane tubes into DI water", "type": "physicochemical", "conditions": "for Cumulative release of the chlorhexidine/fatty acid salts from the coated polyurethane tubes: 1 cm coated tube in DI water, 37° C.", "description": "A solution of each respective chlorhexidine/fatty acid salt was prepared and used to infuse a sample of elastomeric material. To perform the test, individual samples, 8 cm pieces of polyurethane tube containing a colorant, were surface dip coated in respective solutions of the chlorhexidine/fatty acid salts. The solutions were prepared as follows: 8.6 g of Tecoflex (Noveon, Cleveland, Ohio) was dissolved in 174 g of Tetrahydrofuran and methanol. 5.88 g of chlorhexidine acetate, chlorhexidine laurate, chlorhexidine myristate, chlorhexidine palmitate and chlorhexidine stearate were individually dissolved into the polymer-solvent mixture. The samples were immersed into the solvent-polymer-salt mixture and then dried at room temperature, evaporating the solvent. A polymeric coating was produced on the surface of the tubes. The amounts of chlorhexidine/fatty acid salt adhered per cm of the tube was measured (Table 2) by exhaustively extracting the salt and measuring UV absorbance at 253 nm relative to controls: For each of the samples, the rate of release of chlorhexidine/fatty acid salts into an aqueous solution was determined. To perform the rate of release test, 1 cm from each of the coated polyurethane tubes, were submerged in DeIonized (DI) water and incubated at 37° C. for a period of 28 days to determine the rate of release of the salts from the respective 1 cm samples of coated polyurethane tubing. The water was collected and replaced with fresh water after approximately 2 hours. The water was again collected and replaced with fresh water after the first day and every seven days thereafter. The amount of chlorhexidine/fatty acid salt in the collected water was measured with an Agilent 8453 UV-Vis Diode Array Detector with a manual setup using a cuvette w/path length of 1 cm. Chlorhexidine absorbance was read at 253 nm and concentration was calculated via a calibration curve developed using standards of 1, 5, 10, 20, 30, 35, and 40 μg/mL chlorhexidine acetate in DI Water. The percentage of chlorhexidine/fatty acid salt released from the sample into an aqueous media (percent release) was calculated according to the following equation: Percent release=(cumulative release at that time period/initial content)*100."}, "[3]": {"test_system": "Candida albicans ATCC 10231", "test": "Zone of inhibition assay with impregnated polyurethane foam discs", "type": "cell-based", "description": "To evaluate antimicrobial properties of polyurethane foam samples infused with the various chlorhexidine/fatty acid salts, a zone of inhibition assay was performed. In this assay, 1.4% (w/v) of chlorhexidine acetate, chlorhexidine caprate, chlorhexidine laurate, chlorhexidine myristate, chlorhexidine palmitate and chlorhexidine stearate solutions in methanol were prepared. A supply of 8 mm discs were punched out of a sheet of polyurethane foam (Rynel medical grade polyurethane foam) with biopsy punches (Miltex Kai). Several discs were placed in each of six 50 ml centrifuge tubes. Approximately 5 ml of each of the different methanol/chlorhexidine/fatty acid salt solutions was added to each respective tube. The discs were centrifuged for 5 minutes to remove any air bubbles and soaked for 1 hr to infuse the foam discs with the respective chlorhexidine/fatty acid salt. Infused discs were transferred to clean centrifuge tubes and vacuum dried at 25° C. for 24 hrs to remove any residual solvents. Initial concentrations of salts, impregnated into the punches, were determined by dissolving the impregnated foams and by high pressure liquid chromatography (HPLC) analysis using an Agilent Eclipse XDB-CN 3u 4.6×150 mm column with initial mobile phase=65% DI water/0.2% trifluoroacetic acid (TFA): 35% Acetonitrile/0.2% TFA. Chlorhexidine absorbance was read at 253 nm and concentration was calculated via a chlorhexidine calibration curve. […] To perform the zone of inhibition assay on the impregnated polyurethane foam discs, agar plates were prepared by mixing 11 g Mueller-Hinton cation-adjusted broth and 1.5 g agarose in 500 ml DI water. The agar was autoclaved for 15 minutes at 121° C., 15 psi. 10 ml of the still hot, liquid agar was pipetted onto petri dishes. The challenge organism, Candida albicans ATCC 10231, was cultivated in Trypticase soy broth, standard microbiological growth medium (TSB). Sterile cotton swabs were dipped into the undiluted culture and the plated agar was fully inoculated with swabs. The 8 mm polyurethane foam discs were transferred daily to a freshly inoculated agar for 9 days. The zone of inhibition (ZOI) was measured using calipers. Actual ZOI was measured by subtracting the diameter of the foam (when wet) from the zone measured and dividing by 2. The results are presented in Table 6, with a graphical representation of the ZOI in FIG. 2;"}, "[4]": {"test": "Incorporation of chlorhexidine salts into silicone tubing (swelling impregnation, extraction, HPLC)", "type": "physicochemical", "conditions": "one day, equivalent mass of chlorhexidine base extracted", "description": "Chlorhexidine diacetate, Chlorhexidine dodecanoate and chlorhexidine palmitate were loaded into silicone tubing by first dissolving the chlorhexidine salt in a 90% THF+10% Methanol solution.\nImpregnated chlorhexidine was extracted from the tubing by immersing in an excess of THF to fully swell it and then adding an equal volume of water to extract the chlorhexidine salt. The quantity of chlorhexidine was determined by previously enumerated HPLC method. It is reported below for different concentration impregnation solutions in terms of the equivalent mass of chlorhexidine base extracted: […]"}}}
{"compound": "CC(=O)O.CC(=O)O.NC(=N\\CCCCCC/N=C(N)/N=C(\\N)Nc1ccc(Cl)cc1)/N=C(\\N)Nc1ccc(Cl)cc1", "note": "[Chlorhexidine Acetate, chlorhexidine diacetate, reference compound]", "values": [{"measurement": "Log10 reduction of adhered Pseudomonas aeruginosa onto the surface of coated polyurethane tubes", "setting": "[1]; 7 days", "value": 5}, {"measurement": "Log10 reduction of adhered Pseudomonas aeruginosa onto the surface of coated polyurethane tubes", "setting": "[1]; 14 days", "value": 0}, {"measurement": "Log10 reduction of adhered Pseudomonas aeruginosa onto the surface of coated polyurethane tubes", "setting": "[1]; 21 days", "value": 0}, {"measurement": "Inhibition of adherence / antimicrobial effect against Pseudomonas aeruginosa (in words)", "setting": "[1]; listed as chlorhexidine acetate", "value": "inhibition was not apparent at 14 days or thereafter"}, {"measurement": "Inhibition of adherence / antimicrobial effect against Pseudomonas aeruginosa (in words)", "setting": "[1]; listed as chlorhexidine diacetate", "value": "not able to provide an antimicrobial effect against Pseudomonas aeruginosa after 7 days"}, {"measurement": "Cumulative release of the chlorhexidine/fatty acid salts from the coated polyurethane tubes", "setting": "[2]; Day 1", "value": 155, "unit": "g"}, {"measurement": "Cumulative release of the chlorhexidine/fatty acid salts from the coated polyurethane tubes", "setting": "[2]; Day 7", "value": 222, "unit": "g"}, {"measurement": "Cumulative release of the chlorhexidine/fatty acid salts from the coated polyurethane tubes", "setting": "[2]; Day 14", "value": 224, "unit": "g"}, {"measurement": "Cumulative release of the chlorhexidine/fatty acid salts from the coated polyurethane tubes", "setting": "[2]; Day 21", "value": 224, "unit": "g"}, {"measurement": "Cumulative release of the chlorhexidine/fatty acid salts from the coated polyurethane tubes", "setting": "[2]; Day 28", "value": 224, "unit": "g"}, {"measurement": "Time by which approximately all of the salt was released from the coated sample", "setting": "[2]; coated polyurethane tube in DI water", "value": "≤ 7", "unit": "days"}, {"measurement": "Percent release of the initial salt concentration from the coated sample", "setting": "[2]; within 1 day (FIG. 1)", "value": "approximately 70%"}, {"measurement": "ZOI produced by impregnated polyurethane foam punches against Candida albicans", "setting": "[3]; Day 1, daily transfer to fresh agar", "value": 12, "unit": "mm"}, {"measurement": "ZOI produced by impregnated polyurethane foam punches against Candida albicans", "setting": "[3]; Day 2, daily transfer to fresh agar", "value": 11, "unit": "mm"}, {"measurement": "ZOI produced by impregnated polyurethane foam punches against Candida albicans", "setting": "[3]; Day 3, daily transfer to fresh agar", "value": 14, "unit": "mm"}, {"measurement": "ZOI produced by impregnated polyurethane foam punches against Candida albicans", "setting": "[3]; Day 4, daily transfer to fresh agar", "value": 8, "unit": "mm"}, {"measurement": "ZOI produced by impregnated polyurethane foam punches against Candida albicans", "setting": "[3]; Day 7, daily transfer to fresh agar", "value": 8, "unit": "mm"}, {"measurement": "ZOI produced by impregnated polyurethane foam punches against Candida albicans", "setting": "[3]; Day 8, daily transfer to fresh agar", "value": 12, "unit": "mm"}, {"measurement": "ZOI produced by impregnated polyurethane foam punches against Candida albicans", "setting": "[3]; Day 9, daily transfer to fresh agar", "value": 12, "unit": "mm"}, {"measurement": "Zone of inhibition compared with the other salts (in words)", "setting": "[3]; impregnated polyurethane foam, after several daily transfers / over the 9 day assay", "value": "zones of inhibition that were smaller"}, {"measurement": "Salt content in silicone elastomeric medical article", "setting": "[4]; 1% impregnation solution in 90% THF+10% Methanol", "value": 262, "unit": "µg/cm"}, {"measurement": "Salt content in silicone elastomeric medical article", "setting": "[4]; 3% impregnation solution in 90% THF+10% Methanol", "value": 395, "unit": "µg/cm"}, {"measurement": "Salt content in silicone elastomeric medical article", "setting": "[4]; 6% impregnation solution in 90% THF+10% Methanol", "value": 374, "unit": "µg/cm"}, {"measurement": "Salt content in silicone elastomeric medical article", "setting": "[4]; 10% impregnation solution in 90% THF+10% Methanol", "value": 439, "unit": "µg/cm"}]}
